Measured values reported in patent publication US20070154567A1, “Use of mercury to treat cancer” (priority 2006, published 2007).
Several values for one entry are separate records, joined by “and”; a condition that tells them apart may be missing. Equal entries are not always repeated.

System: non-metastatic osteosarcoma on distal right radius
Assay: Oral inorganic mercury (II) treatment of a pet Rottweiler: blood data and clinical follow-up
Format: in vivo, dog
Parameters: MCV / MCH / Neutrophils, absolute / Bands / Lymphocytes, absolute / Monocytes, absolute / Eosinophils, absolute / Basophils, absolute: unit not given here
Source text: An 8 year old, 108 lbs female Rottweiler, was diagnosed with non-metastatic osteosarcoma on distal right radius.
Earlier cisplatin chemotherapy was attempted, but was stopped due to unacceptable side effects one month before the inorganic mercury treatment. Prior to treatment, the dog had high alkaline phosphatase (ALP) level that had been rising as disease progressed (compare Day (−57) and Day 1 in Table 2). ALP is a known progression marker for osteosarcoma (Kirpensteijn et al., 2002, Vet Pathol 39:240-246 and Gaetano Bacci et al., 2002, Oncology Reports 9: 171-175). The dog completed the first 30-day treatment course followed by a 30-day non-treatment period and started the second treatment course for at least up to day 65. The formulation contained 1 mM mercury acetate in 20 mM sodium acetate buffer, pH 4.5, with 100 mM sucrose and 150 mM sodium chloride additives. It was introduced orally to the dog three times a day at 0.5 micromole Hg^2+/kg/day. […] This drop in ALP level (˜250 Units/month) was significant considering that, prior to starting the mercury (II) treatment, it had been raising at ˜50 U/month rate. As observed by the attending veterinarian, the dog's appetite was increased and the dog gained 5 lbs during that period. […] During this period the condition of the dog worsened and was accompanied by an increase in ALP level (compare Day 32 and Day 65 in Table 3). The dog was euthanized on Day 91.

CC(=O)[O-].CC(=O)[O-].[Hg+2] [inorganic mercury (II), mercury acetate]
condition of the dog (2nd treatment course, formulation administered with food in violation of the protocol): worsened
ALT (SGPT) (Day 1): 61 U/L
AST (SGOT) (Day 1): 28 U/L
Albumin (Day 1): 3.7 g/dL
Albumin/Globulin Ratio (Day 1): 1.1
Alkaline Phosphatase (ALP) (Day 1): 794 U/L and 794 (H) U/L
Amylase (Day 1): 862 U/L
BUN/Creatinine Ratio (Day 1): 9
Bands (Day 1): 0
Basophils, absolute (Day 1): 0
CPK (Day 1): 175 U/L
Calcium (Day 1): 10.6 mg/dL
Chloride (Day 1): 116 mE/L
Cholesterol (Day 1): 240 mg/dL
Creatinine (Day 1): 1.2 mg/dL
Eosinophils, (%) (Day 1): 7%
Eosinophils, absolute (Day 1): 770
Globulin (Day 1): 3.4 g/dL
Glucose (Day 1): 77 mg/dL
Hematocrit (Day 1): 41.3%
Hemoglobin (Day 1): 13.7 g/dL
Lymphocytes, (%) (Day 1): 26%
Lymphocytes, absolute (Day 1): 2860
MCH (Day 1): 22.2
MCHC (Day 1): 33.2
MCV (Day 1): 67
Monocytes, (%) (Day 1): 6%
Monocytes, absolute (Day 1): 660
Neutrophils, (%) (Day 1): 61%
Neutrophils, absolute (Day 1): 6710
Phosphorus (Day 1): 5.4 mg/dL
Platelet count (Day 1): 475 (H) 10^3/microl
Potassium (Day 1): 5.2 mE/L
RBC (Day 1): 6.16 10^6/microl
Sodium (Day 1): 152 mE/L
Total Billirubin (Day 1): 0.1 mg/dL
Total Protein (Day 1): 7.1 g/dL
Urea Nitrogen (Day 1): 11 mg/dL
WBC (Day 1): 11.0 10^3/microl
drop in ALP level (Day 1 to Day 32, first treatment course): ~250 Units/month
ALT (SGPT) (Day 32): 61 U/L
AST (SGOT) (Day 32): 27 U/L
Albumin (Day 32): 3.5 g/dL
Albumin/Globulin Ratio (Day 32): 1.1
Alkaline Phosphatase (ALP) (Day 32): 539 U/L and 539 (H) U/L
Amylase (Day 32): 864 U/L
BUN/Creatinine Ratio (Day 32): 12
Bands (Day 32): 0
CPK (Day 32): 198 U/L
Calcium (Day 32): 10.5 mg/dL
Chloride (Day 32): 118 mE/L
Cholesterol (Day 32): 251 mg/dL
Creatinine (Day 32): 1.3 mg/dL
Eosinophils, (%) (Day 32): 5%
Eosinophils, absolute (Day 32): 495
Globulin (Day 32): 3.3 g/dL
Glucose (Day 32): 102 mg/dL
Hematocrit (Day 32): 39.1%
Hemoglobin (Day 32): 13.9 g/dL
Lymphocytes, (%) (Day 32): 35%
Lymphocytes, absolute (Day 32): 3465
MCH (Day 32): 24.6
MCHC (Day 32): 35.5
MCV (Day 32): 69
Monocytes, (%) (Day 32): 5%
Monocytes, absolute (Day 32): 495
Neutrophils, (%) (Day 32): 55%
Neutrophils, absolute (Day 32): 5445
Phosphorus (Day 32): 5.5 mg/dL
Platelet count (Day 32): 213 10^3/microl
Potassium (Day 32): 5.2 mE/L
RBC (Day 32): 5.64 10^6/microl
Sodium (Day 32): 146 mE/L
Total Billirubin (Day 32): 0.2 mg/dL
Total Protein (Day 32): 6.8 g/dL
Urea Nitrogen (Day 32): 16 mg/dL
WBC (Day 32): 9.9 10^3/microl
ALT (SGPT) (Day 65): 62 U/L
AST (SGOT) (Day 65): 30 U/L
Albumin (Day 65): 3.8 g/dL
Albumin/Globulin Ratio (Day 65): 1.0
Alkaline Phosphatase (ALP) (Day 65): 606 (H) U/L
Amylase (Day 65): 1003 U/L
BUN/Creatinine Ratio (Day 65): 13
Bands (Day 65): 0
Basophils, absolute (Day 65): 0
CPK (Day 65): 171 U/L
Calcium (Day 65): 10.9 mg/dL
Chloride (Day 65): 113 mE/L
Cholesterol (Day 65): 244 mg/dL
Creatinine (Day 65): 1.2 mg/dL
Eosinophils, (%) (Day 65): 8%
Eosinophils, absolute (Day 65): 808
Globulin (Day 65): 3.8 (H) g/dL
Glucose (Day 65): 87 mg/dL
Hematocrit (Day 65): 42.3%
Hemoglobin (Day 65): 16.1 g/dL
Lymphocytes, (%) (Day 65): 33%
Lymphocytes, absolute (Day 65): 3333
MCH (Day 65): 24.8
MCHC (Day 65): 38.1 (H)
MCV (Day 65): 65
Monocytes, (%) (Day 65): 4%
Monocytes, absolute (Day 65): 404
Neutrophils, (%) (Day 65): 55%
Neutrophils, absolute (Day 65): 5555
Phosphorus (Day 65): 5.1 mg/dL
Platelet count (Day 65): 368 10^3/microl
Potassium (Day 65): 4.6 mE/L
RBC (Day 65): 6.49 10^6/microl
Sodium (Day 65): 150 mE/L
Total Billirubin (Day 65): 0.1 mg/dL
Total Protein (Day 65): 7.5 (H) g/dL
Urea Nitrogen (Day 65): 15 mg/dL
WBC (Day 65): 10.1 10^3/microl
weight gained (first 30 days of treatment): 5 lbs
appetite (first 30 days of treatment, observed by attending veterinarian): increased
